Results taken from US20230000832A1, “USE OF NEUROPILIN ANTAGONISTS FOR THE TREATMENT OF ENDOMETRIOSIS” (INSERM (Institut National de la Santé et de la Recherche …, priority 2019, published 2023).
pIC50: −log10 of the molar value. Entries after “also recorded” stand apart in the source; their conditions may differ.

What was measured:
[1] = tested on: human primary unmodified endometrial cell line (TH-EM1); experiment: Cell proliferation assay (WST-1) on primary endometrial cells; type: cell-based; settings: for endometrial growth inhibition: high concentration 10^−5M, since 2 days (D2) of exposure; for exposure time to reach maximum efficiency: low concentration between 10^−6 and 10^−7 M, effect stable at D5
Method: (§1) The human primary unmodified endometrial cell line (TH-EM1) describes by Gogusev j et al. 2019 is cultured with Dulbecco modified Eagle medium supplemented with 10% of fetal calf serum (FCS), L-glutamine, and antibiotics (Invitrogen-Thermo Fisher, Cergy-Pontoise, France). Cells were plated in 96-well plates or in 12-well plates to study cell proliferation or apoptosis, respectively.
Cells were plated in 200 μL/well in 96-well plates at 10^4 cells/well and were treated or not with Neuropilin antagonists (NRPa) such as NRPa-47, NRPa-48 at several concentration (10^−5 to 5·10^−8M) alone or in association with different concentrations of progestatif drugs such as Lutenyl® (Nomegestrol acetate) at 3·10^−5 M during 48 h, 72 h or 120 h. WST-1 (Roche®, France) was added for 2 h, then Optical Density was analyzed with a microplate reader (Microplate Manager 5.2, Bio-Rad) at 490 nm to determine the cell viability.

[2] = tested on: human primary unmodified endometrial cell line (TH-EM1); experiment: Apoptosis assay (Annexin-V/7AAD, flow cytometry); type: cell-based; settings: 10^−6 M, 72 h, versus untreated and DMSO treated cells
Method: as §1
Cells were plated in 2000 μL/well in 12-well plates at 5·10^5 cells/well and were treated or not with Neuropilin antagonists (NRPa) such as NRPa-47, NRPa-48 during 48 h to 72 h at 10^−6M. Then, cells are harvested and stained using Annexin-V/7AAD kit protocol following manufacturer's recommendation. Then, stained cells were analyzed on a fluorescence activated cell sorter (FACS) Calibur flow cytometer (Becton Dickinson Co, Mountain View, Calif.) and data analysis was performed with Flowjo software.

O=C(NC(=S)Nc1cccc(-c2nc3ccccc3[nH]2)c1)c1ccc2c(c1)OCCO2 [NRPa-48, N-[3-(1H-benzimidazol-2-yl)phenyl]-N′-(2,3-dihydro-1,4-benzodioxin-6-ylcarbonyl)thiourea]
IC50 ([1]; Homo sapiens, NRPa alone, approximative, same value restated in nM): ~100 nM
pIC50 ([1]; Homo sapiens, NRPa alone, concentration range, time course D2 to D5, approximative/calculated): 7.00
effect of association with progestogen on cell growth inhibition ([1]; NRPa-48 5·10^−8M with Lutenyl (Nomegestrol acetate) 3·10^−5 M): synergistic effect
endometrial growth inhibition [1]: rapid endometrial growth inhibition
exposure time to reach maximum efficiency [1]: 3 days
induction of apoptosis and necrosis / cell death of endometrial cells [2]: induction of apoptosis; also recorded: induced endometrial cell death

Cc1ccc(-c2nc3ccccc3[nH]2)cc1NC(=S)NC(=O)c1ccc2c(c1)OCCO2 [NRPa-47, N-[5-(1H-benzimidazol-2-yl)-2-methylphenyl]-N′-(2,3-dihydro-1,4-benzodioxin-6-ylcarbonyl)thiourea]
inhibition at 10 µM ([1]; Homo sapiens, 10^−5M, after 48 h (D2), consistent at 72 h (D3), read-out: decrease of cell survival / inhibition of endometrial cells): 80%
IC50 on primary endometrial cell proliferation ([1]; NRPa alone, concentration range, time course D2 to D5, approximative/calculated): 10^−6 to 10^−7 M
effect of association with progestogen on cell growth inhibition ([1]; NRPa-47 5·10^−7M (6·10^−7 M) with Lutenyl (Nomegestrol acetate) 3·10^−5 M): Additif effect; also recorded: additive effect
endometrial growth inhibition [1]: rapid endometrial growth inhibition
exposure time to reach maximum efficiency [1]: 3 days
induction of apoptosis and necrosis / cell death of endometrial cells [2]: induction of apoptosis; also recorded: induced endometrial cell death
